# Measured values taken from patent US7563590B2, “Methods of quantifying methotrexate metabolites” (Cypress Bioscience Inc., priority 2002, dated 2009).
# Key:
# [1] = Intracellular MTX and MTXPG levels in RBCs of polyarthritis patients receiving low-dose MTX; assay type: in vivo, human; settings: one patient on 2.5 mg per week MTX, RBC
# Experimental: Blood samples (5 ml) from polyarthritis patients receiving low-dose MTX were collected after written informed consent. The patients had received a median of 15 mg MTX (range 2.5 mg to 40 mg per week) for at least three months. Blood samples were centrifuged for 10 minutes to separate plasma and buffy coat from RBCs. After washing the RBC pellet with 2 volumes of saline, RBC count was determined with a Beckman Coulter Onyx Counter; RBCs were subsequently stored at −70° C. until analysis. Results were normalized to 10^9 red blood cells. Patient results were expressed as average ±SEM (range).
# MTXPG concentrations were determined using the methods described in Example II except that RBC extracts were not spiked with MTXPG. MTXPG concentrations were calculated by subtracting […]. To quantify MTX concentrations without enzymatic treatment, a second 100 μl aliquot of patient RBC extract was obtained but not treated with plasma or buffer. Rather, 200 μl water was added to the RBC extract prior to immediate deproteinization with 30 μl 70% perchloric acid as described above.
# An exemplary determination of MTXPG concentration in the red blood cells of a patient on 2.5 mg per week MTX therapy follows. […]
# gamma glutamyl hydrolase = biological target: T1, gamma glutamyl hydrolase (Homo sapiens, UniProt Q92820); assay: Enzymatic conversion of MTXPGs to MTX in RBC extract using plasma as source of gamma glutamyl hydrolase; assay type: biochemical; settings: for conversion to MTX: in the dark, 1000 nmol/L RBC
# T1 construct: contacting the extract with plasma as a source of gamma glutamyl hydrolase; tissue Sigma P9523; host or cells: reconstituted lyophilized plasma (purchased), mixed with RBC hemolysate from healthy donors
# T1 sequence (Q92820 25-318): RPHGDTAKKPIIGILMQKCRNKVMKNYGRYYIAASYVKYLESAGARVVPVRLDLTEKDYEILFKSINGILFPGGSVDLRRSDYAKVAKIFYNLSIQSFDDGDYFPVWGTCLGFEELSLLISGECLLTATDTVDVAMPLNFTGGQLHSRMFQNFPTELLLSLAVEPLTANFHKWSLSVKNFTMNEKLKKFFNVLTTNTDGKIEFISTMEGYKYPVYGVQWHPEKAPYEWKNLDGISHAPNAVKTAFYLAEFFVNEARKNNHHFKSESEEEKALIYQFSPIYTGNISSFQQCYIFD
# Experimental: MTXPGs were enzymatically converted to MTX by incubation with RBC extract and plasma as follows. RBCs were isolated from healthy donors (Blood bank; San Diego, Calif.) Hemolysates were prepared having 0.88×10^9 RBC per 100 μl. For spiked samples, MTXPG (Schirks Laboratories; Jona, Switzerland) was added to RBC extracts at a final concentration of 1 μM (from stock solutions containing 100 μM MTXPG in 0.1 N potassium hydroxide). Reconstituted plasma was prepared from lyophilized plasma (Sigma, St. Louis, USA; Cat. No. P9523) and 100 μl was added to 50 μl of RBC extract, mixed for 30 seconds, and 100 μl of buffer containing 100 mM potassium phosphate pH 4.5 and 150 mM mercaptoethanol was added. […] Samples were incubated for 12-14 hours, unless otherwise indicated, in the dark at 37° C. After incubation 30 μl of 70% perchloric acid was added to the mixture, vortexed for 15 seconds and centrifuged for 10 minutes. A total volume of 80 μl was injected onto the HPLC system for analysis using the MTX detection system described in Example I.
# The percent conversion of MTXPG to MTX was determined by comparing the peak area of MTX formed during the enzymatic conversion at different times with the peak area of MTX spiked in the red blood cells at the same concentration.
SMILES,MTX concentration prior to enzymatic conversion [1] [pmol MTXPG/10^9 cells],slope of plot of observed MTX concentration versus spiked concentration (gamma glutamyl hydrolase; RBC sample spiked prior to deglutamation (FIG. 5)),conversion to MTX (gamma glutamyl hydrolase; after 8 hour incubation at 37° C.),"conversion to MTX (gamma glutamyl hydrolase; by 4 hours, 37° C.)"
"CN(Cc1cnc2nc(N)nc(N)c2n1)c1ccc(C(=O)N[C@@H](CCC(=O)O)C(=O)O)cc1 [MTX, methotrexate]",16.5,–,–,–
CN(Cc1cnc2nc(N)nc(N)c2n1)c1ccc(C(=O)N[C@@H](CCC(=O)N[C@@H](CCC(=O)O)C(=O)O)C(=O)O)cc1 [MTXPG2],–,0.98,completely converted,largely complete
